Data from patent US6426080B1, “Cosmetic preparation of active substances with high protection factor against free radicals” (Coty, B.V., priority 1998, dated 2002).

How the values were obtained:
[1] = standard antioxidants, known parameter; cited from earlier work
[2] = activity against free radicals compared with SOD; format: biochemical
From the text: The Quebracho bark extract according to the invention or its hydrolysis product has a very high portion of proantho-cyanidines representing condensed tannins. […] The activity against free radicals was compared with that of SOD and found to be 42% for a 1 percent by weight solution of the extract (SOD 4%), 83% for a 2.5% by weight solution (SOD 15%)and 100% for a 5% by weight solution (SOD 38%). Preferably the extract (a) contains at least 95 percent by weight of proanthocyanidine oligomers and up to 5 percent by weight of gallic acid, in particular at least 99 percent by weight of proanthocyanidine oligomers and up to 1 percent by weight of gallic acid.

**Q.** With Cc1c(C)c2c(c(C)c1O)CCC(C)(CCCC(C)CCCC(C)CCCC(C)C)O2 (racemic) [DL-α-tocopherol] as the compound, how does the “radical protection factor (RPF)” value [1] read?
**A.** Its value is 41200 ×10^14 radicals/mg.

**Q.** With CC(=O)Oc1c(C)c(C)c2c(c1C)CCC(C)(CCC[C@H](C)CCC[C@H](C)CCCC(C)C)O2 (stereo partly shown) [a-tocopherol acetate] as the compound, how does the “radical protection factor (RPF)” value [1] read?
**A.** The value was “about 48 ×10^14 radicals/mg”.

**Q.** With CC(=O)OC/C=C(C)/C=C/C=C(C)/C=C/C1=C(C)CCCC1(C)C [all-trans retinal acetate] as the compound, how does the “radical protection factor (RPF)” value [1] read?
**A.** The value was 196 ×10^14 radicals/mg.

**Q.** With CC1=C(/C=C/C(C)=C/C=C/C(C)=C/CO)C(C)(C)CCC1 [all-trans-retinole] as the compound, how does the “radical protection factor (RPF)” value [1] read?
**A.** The value was 827 ×10^14 radicals/mg.

**Q.** For superoxide dismutase [SOD], which “activity against free radicals” value ([2]; 1 percent by weight solution) is on record?
**A.** The value was 4%.

**Q.** What about the “activity against free radicals” value ([2]; 2.5% by weight solution) of the same compound?
**A.** The value was 15%.

**Q.** And the “activity against free radicals” value ([2]; 5% by weight solution)?
**A.** Its value is 38%.
